Experiments:
anti-PS-I mAbs = assay: STD-NMR competition experiment; format: binding, mouse; details: 1 added to 200 μM, saturation transfer time 2 s
Description: (§1) Figure 6 Epitope mapping of glycan–mAb interactions by STD-NMR. (a,b) Recognition of disaccharide 3 by mAb 10A1 shown as Lewis structure and three-dimensional model calculated with Glycam[70]. Colours indicate percentages of STD effects. (c) Recognition patterns of 3 by three mAbs. STD spectra were acquired at 2 s saturation transfer time in the presence of mAbs 2C5, 10A1 and 10D6 (from top to bottom). (d) Competition of trisaccharide 2 by pentasaccharide 1.
Owing to the slow off-rates of 1 with all three mAbs, we were unable to determine any STD effects for the pentasaccharide. […] This indicated identical binding sites and confirmed high-affinity binding of 1.
Before the STD-NMR studies, proton resonances of oligosaccharides 1–3 were assigned using standard one-dimensional proton spectra, as well as 2D total correlation spectroscopy (2D-TOCSY), correlation spectroscopy, ^1H–^13C heteronuclear single quantum coherence and ^1H–^13C heteronuclear multiple bond correlation spectra at concentrations varying between 5 and 20 mM in D2O. All NMR studies were measured at 298 K on a Varian PremiumCOMPACT 600 MHz spectrometer equipped with a OneNMR probe. […] A total of 2,048 scans were recorded. […] STD build-up curves for mAb 10A1 were recorded at saturation transfer times of 0.5, 1, 2, 4 and 6 s, adjusting the prescan delay accordingly. […]

mAb 10A1 = assay: STD-NMR epitope mapping; format: binding, mouse; details: 200 μM ligand, 2 μM antibody
Description: To understand antibody binding at molecular-level detail and to identify the functional groups involved in antibody binding, we performed STD-NMR measurements. […] The glucose moiety in 3 contributed weakly to antibody binding around H3 (11%). Despite the low saturation transfer, this interaction appears to be important for antibody binding, as mono-rhamnose 4 was not or only weakly bound by the mAbs in glycan microarray and SPR experiments.
as §1
Before the STD-NMR studies, proton resonances of oligosaccharides 1–3 were assigned using standard one-dimensional proton spectra, as well as 2D total correlation spectroscopy (2D-TOCSY), correlation spectroscopy, ^1H–^13C heteronuclear single quantum coherence and ^1H–^13C heteronuclear multiple bond correlation spectra at concentrations varying between 5 and 20 mM in D2O. All NMR studies were measured at 298 K on a Varian PremiumCOMPACT 600 MHz spectrometer equipped with a OneNMR probe. For STD-NMR, samples contained 200 μM ligand and 2 μM antibody in 40 mM phosphate buffer (pH 7.0, uncorrected). On-resonance irradiation was set to −0.5 p.p.m. and off-resonance irradiation was set to 80 p.p.m. A 35-ms T1ρ spin-lock filter and a W5 WATERGATE for solvent suppression were applied. The saturation pulse train consisted of a series of Gaussian shaped pulses of 50 ms duration and 1 ms interpulse delay with an irradiation power of 85 Hz. A total of 2,048 scans were recorded. STD-NMR spectra of carbohydrates in the absence of antibody and spectra of antibody only served as negative controls. Here, saturation and relaxation times were set to 2 and 6 s, respectively. STD build-up curves for mAb 10A1 were recorded at saturation transfer times of 0.5, 1, 2, 4 and 6 s, adjusting the prescan delay accordingly. Epitopes for mAbs 2C5 and 10D6 were recorded with a saturation transfer time of 2 s. NMR spectra were processed in MestReNova 9.1 (MestreLab) and data were analysed in OriginPro9 (OriginLab) to obtain the binding epitopes according to Mayer and James[28]. For the competition experiments, 1 was added to samples of 3 or 2 to a final concentration of 200 μM applying a saturation transfer time of 2 s.

C[C@@H]1O[C@@H](O[C@@H]2[C@@H](O)[C@H](O[C@H]3[C@H](O[C@@H]4O[C@@H](C)[C@H](O)[C@@H](O)[C@H]4O)[C@@H](O)[C@@H](O[C@H]4[C@@H](OCCCCCN)O[C@H](CO)[C@@H](O)[C@@H]4O)O[C@@H]3CO)O[C@H](CO)[C@H]2O)[C@H](O)[C@H](O)[C@H]1O [Compound 1]
Competition of trisaccharide 2 STD effects (in words) (anti-PS-I mAbs): completely diminished any STD effects imposed by 2

C[C@@H]1O[C@@H](O[C@@H]2[C@@H](O)[C@H](OCCCCCN)O[C@H](CO)[C@H]2O)[C@H](O)[C@H](O)[C@H]1O [Compound 3, Rha-(1→3)-Glc]
normalized STD effect, glucose H3 (mAb 10A1): 11%
normalized STD effect, rhamnose H2 (mAb 10A1): 78%
normalized STD effect, rhamnose H3 (mAb 10A1): 99%
normalized STD effect, rhamnose methyl protons H6, H'6 and H''6 (mAb 10A1): 100%

Source: PMC4838876, “Multivalent display of minimal Clostridium difficile glycan epitopes mimics antigenic properties of larger glycans” (Nature Communications, 2016)
